Measurements reported in ChEMBL document CHEMBL4265970, “2'-Aryl and 4'-arylidene substituted pyrazolones: As potential α-amylase inhibitors” (Eur J Med Chem, 2018).

Columns and labels:
[1] = biological target: T1, Alpha amylase (Homo sapiens, UniProt P0DUB6); test: Inhibition of alpha-amylase (unknown origin) using starch as substrate preincubated for 10 mins followed by substrate addition measured after 10 mins by dinitrosalicylic acid color reagent based assay
T1 sequence (P0DUB6 whole entry): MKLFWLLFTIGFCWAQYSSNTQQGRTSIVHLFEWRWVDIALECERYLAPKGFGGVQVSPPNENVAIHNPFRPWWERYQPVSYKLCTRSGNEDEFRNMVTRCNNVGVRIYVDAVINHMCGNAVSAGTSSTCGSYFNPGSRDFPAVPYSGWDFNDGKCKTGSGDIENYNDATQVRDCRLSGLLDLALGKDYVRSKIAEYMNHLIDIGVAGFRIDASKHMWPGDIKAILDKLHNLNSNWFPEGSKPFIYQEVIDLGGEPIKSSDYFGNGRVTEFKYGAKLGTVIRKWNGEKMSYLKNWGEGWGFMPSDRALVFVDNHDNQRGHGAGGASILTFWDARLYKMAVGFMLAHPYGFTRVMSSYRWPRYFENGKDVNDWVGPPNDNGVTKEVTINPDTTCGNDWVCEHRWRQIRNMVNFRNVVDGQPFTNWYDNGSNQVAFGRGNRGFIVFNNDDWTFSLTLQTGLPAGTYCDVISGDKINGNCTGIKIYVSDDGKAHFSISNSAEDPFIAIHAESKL

[2] = biological target: T1, Alpha amylase; test: Mixed-type inhibition of alpha-amylase (unknown origin) using p-nitrophenylR-D-maltoside as substrate incubated for 30 mins at 1 min time interval
[3] = tested on: COc1ccc(/C=C2/C(=O)N(c3ccc(Cl)cc3)N=C2C)c(Cl)c1OC; test: (§1) Mixed-type inhibition of alpha-amylase (unknown origin) assessed as Vmax for substrate using p-nitrophenylR-D-maltoside as substrate incubated for 30 mins at 1 min time interval; settings: Homo sapiens
[4] = tested on: CC1=NN(c2ccc(Cl)cc2)C(=O)/C1=C/c1cc(Cl)cc(Cl)c1O; test: as §1; settings: Homo sapiens
[5] = tested on: COc1cc(/C=C2/C(=O)N(c3ccc(Cl)cc3)N=C2C)ccc1OC(C)=O; test: as §1; settings: Homo sapiens
[6] = tested on: CC1=NN(c2ccc(Cl)cc2)C(=O)/C1=C/c1cc(F)ccc1Br; test: as §1; settings: Homo sapiens
[7] = tested on: CC1=NN(c2ccc(Cl)cc2)C(=O)/C1=C/c1ccc(Br)cc1; test: as §1; settings: Homo sapiens
[8] = tested on: COc1cc(/C=C2/C(=O)N(c3ccc(Cl)cc3)N=C2C)cc(OC)c1Br; test: as §1; settings: Homo sapiens
[9] = tested on: COc1cc(/C=C2/C(=O)N(c3ccc(Cl)cc3)N=C2C)c(OC)cc1Br; test: as §1; settings: Homo sapiens
[10] = tested on: COc1ccc(/C=C2/C(=O)N(c3ccc(Cl)cc3)N=C2C)cc1Br; test: as §1; settings: Homo sapiens
[11] = tested on: COc1ccc(/C=C2/C(=O)N(c3ccc(Cl)cc3)N=C2C)c(Cl)c1OC; test: (§2) Mixed-type inhibition of alpha-amylase (unknown origin) assessed as Km for substrate using p-nitrophenylR-D-maltoside as substrate incubated for 30 mins at 1 min time interval; settings: Homo sapiens
[12] = tested on: CC1=NN(c2ccc(Cl)cc2)C(=O)/C1=C/c1cc(Cl)cc(Cl)c1O; test: as §2; settings: Homo sapiens
[13] = tested on: COc1cc(/C=C2/C(=O)N(c3ccc(Cl)cc3)N=C2C)ccc1OC(C)=O; test: as §2; settings: Homo sapiens
[14] = tested on: CC1=NN(c2ccc(Cl)cc2)C(=O)/C1=C/c1cc(F)ccc1Br; test: as §2; settings: Homo sapiens
[15] = tested on: CC1=NN(c2ccc(Cl)cc2)C(=O)/C1=C/c1ccc(Br)cc1; test: as §2; settings: Homo sapiens
[16] = tested on: COc1cc(/C=C2/C(=O)N(c3ccc(Cl)cc3)N=C2C)cc(OC)c1Br; test: as §2; settings: Homo sapiens
[17] = tested on: COc1cc(/C=C2/C(=O)N(c3ccc(Cl)cc3)N=C2C)c(OC)cc1Br; test: as §2; settings: Homo sapiens
[18] = tested on: COc1ccc(/C=C2/C(=O)N(c3ccc(Cl)cc3)N=C2C)cc1Br; test: as §2; settings: Homo sapiens

Row | Molecule | IC50 [1] [nM] | Ki [2] [nM] | also measured
1 | COc1ccccc1/C=C1/C(=O)N(c2ccc(Cl)cc2)N=C1C | 2020 |  | 
2 | CC1=NN(c2ccc(Cl)cc2)C(=O)/C1=C/c1ccc(Br)cc1 | 1920 | 3840 | 
3 | CC1=NN(c2ccc(Cl)cc2)C(=O)/C1=C/c1cc(F)ccc1Br | 1930 | 3420 | 
4 | COc1ccc(/C=C2/C(=O)N(c3ccc(Cl)cc3)N=C2C)cc1Br | 1920 | 3840 | 
5 | COc1cc(/C=C2/C(=O)N(c3ccc(Cl)cc3)N=C2C)cc(OC)c1 | 2210 |  | 
6 | COc1ccc(/C=C2/C(=O)N(c3ccc(Cl)cc3)N=C2C)c(OC)c1OC | 2100 |  | 
7 | COc1ccc(/C=C2/C(=O)N(c3ccc(Cl)cc3)N=C2C)c(Cl)c1OC | 1970 | 3540 | 
8 | CC1=NN(c2ccc(Cl)cc2)C(=O)/C1=C/c1ccc([N+](=O)[O-])cc1 | 2380 |  | 
9 | COc1cc(/C=C2/C(=O)N(c3ccc(Cl)cc3)N=C2C)ccc1OC(C)=O | 1940 | 2980 | 
10 | Alpha amylase (Homo sapiens) (from UniProt P0DUB6) |  |  | Vmax [3]: 70.6 µM/min; Vmax [4]: 79.7 µM/min; Vmax [5]: 70.5 µM/min; Vmax [6]: 71.2 µM/min; Vmax [7]: 73.4 µM/min; Vmax [8]: 65.2 µM/min; Vmax [9]: 71.4 µM/min; Vmax [10]: 68.3 µM/min; Km [11]: 3.14 mM; Km [12]: 3.4 mM; Km [13]: 2.9 mM; Km [14]: 3.11 mM; Km [15]: 3.26 mM; Km [16]: 2.92 mM; Km [17]: 3.04 mM; Km [18]: 2.86 mM
11 | COc1ccc(OC)c(/C=C2/C(=O)N(c3ccc(Cl)cc3)N=C2C)c1 | 2130 |  | 
12 | COc1ccc(/C=C2/C(=O)N(c3ccc(Cl)cc3)N=C2C)cc1OC | 2030 |  | 
13 | COc1cc(/C=C2/C(=O)N(c3ccc(Cl)cc3)N=C2C)c(OC)cc1Br | 1860 | 3120 | 
14 | CC1=NN(c2ccc(Cl)cc2)C(=O)/C1=C/c1cc(Cl)cc(Cl)c1O | 1610 | 4260 | 
15 | COc1cc(/C=C2/C(=O)N(c3ccc(Cl)cc3)N=C2C)ccc1OCc1ccccc1 | 2330 |  | 
16 | COc1ccc(/C=C2/C(=O)N(c3ccc(Cl)cc3)N=C2C)c(OC)c1 | 2010 |  | 
17 | CC1=NN(c2ccc(Cl)cc2)C(=O)/C1=C/c1c[nH]c2ccccc12 | 2160 |  | 
18 | COc1cc(/C=C2/C(=O)N(c3ccc(Cl)cc3)N=C2C)cc(OC)c1OC | 2190 |  | 
19 | COc1cc(/C=C2/C(=O)N(c3ccc(Cl)cc3)N=C2C)cc(OC)c1Br | 1680 | 3240 | 
